Assay results: PubChem BioAssay AID328 (DTP/NCI, 2004)
Values joined by “and” are separate entries in the source; they are usually repeats but may differ in a detail not shown here. Identical values can stand only once. Inconclusive results and toxic doses are left out.

Test system: BDF1 mice, P388 leukemia ip, median survival T/C
Test: NCI In Vivo Anticancer Drug Screen. Data for tumor model P388 Leukemia (intraperitoneal) in B6D2F1 (BDF1) mice
Details: endpoint: median survival time, higher = longer survival
Summary of the method: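 Vehicle-dosed animals serve as the reference; survival of compound-dosed, tumour-implanted mice is divided by it.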

[1] = dose: 100.0 mg/kg/injection, schedule: Q01DX009 (ip), vehicle: saline with Tween-80
[2] = dose: 100.0 mg/kg/injection, schedule: Q01DX009 (ip), vehicle: saline
[3] = dose: 200.0 mg/kg/injection, schedule: Q01DX009 (ip), vehicle: saline with Tween-80
[4] = dose: 200.0 mg/kg/injection, schedule: Q01DX009 (ip), vehicle: saline
[5] = dose: 400.0 mg/kg/injection, schedule: Q01DX009 (ip), vehicle: saline with Tween-80
[6] = dose: 100.0 mg/kg/injection, schedule: Q04DX003 (ip), vehicle: saline with Tween-80

Compound: O=C(O)C1C2CCCCC21 (configuration not stated)
- T/C [1]: 109 % of control
- T/C [2]: 113 % of control
- T/C [3]: 100 % of control
- T/C [4]: 109 % of control
- T/C [5]: 95 % of control
- T/C (dose: 400.0 mg/kg/injection, schedule: Q01DX009 (ip), vehicle: saline): 104 % of control

Compound: ClCCCCCCCCc1ccccc1
- T/C (dose: 12.5 mg/kg/injection, schedule: Q01DX009 (ip), vehicle: saline): 102 % of control
- T/C (dose: 25.0 mg/kg/injection, schedule: Q01DX009 (ip), vehicle: saline): 100 % of control
- T/C (dose: 44.0 mg/kg/injection, schedule: Q04DX003 (ip), vehicle: saline with Tween-80): 122 % of control
- T/C (dose: 50.0 mg/kg/injection, schedule: Q01DX009 (ip), vehicle: saline): 107 % of control
- T/C (dose: 66.0 mg/kg/injection, schedule: Q04DX003 (ip), vehicle: saline with Tween-80): 100 % of control
- T/C [2]: 100 % of control
- T/C [6]: 118 % of control
- T/C [4]: 108 % of control

Compound: COc1cc2c3c(c1O)Oc1ccc(cc1)C[C@@H]1c4c(cc(OC)c(O)c4Oc4ccc(cc4)C[C@H]3N(C)CC2)CCN1C
- T/C (dose: 40.0 mg/kg/injection, schedule: Q01DX010 (ip), vehicle: saline): 95 % of control
- T/C (dose: 80.0 mg/kg/injection, schedule: Q01DX010 (ip), vehicle: saline): 100 % of control
- T/C (dose: 160.0 mg/kg/injection, schedule: Q01DX010 (ip), vehicle: saline): 105 % of control
- T/C (dose: 320.0 mg/kg/injection, schedule: Q01DX010 (ip), vehicle: saline): 90 % of control

Compound: CC(O)(C(N)=O)c1cc(Cl)ccc1Cl (configuration not stated)
- T/C (dose: 100.0 mg/kg/injection, schedule: Q01DX009 (ip), vehicle: water): 110 % of control
- T/C (dose: 100.0 mg/kg/injection, schedule: Q04DX003 (ip), vehicle: water): 109 % of control
- T/C (dose: 200.0 mg/kg/injection, schedule: Q01DX009 (ip), vehicle: water): 110 % of control
- T/C (dose: 200.0 mg/kg/injection, schedule: Q04DX003 (ip), vehicle: water): 100 % of control
- T/C (dose: 400.0 mg/kg/injection, schedule: Q01DX009 (ip), vehicle: water): 90 % of control
- T/C (dose: 400.0 mg/kg/injection, schedule: Q04DX003 (ip), vehicle: water): 95 % of control

Compound: Cc1cc(C)c([I+]c2c(C)cc(C)cc2C)c(C)c1
- T/C (dose: 0.28 mg/kg/injection, schedule: Q01DX009 (ip), vehicle: saline): 118 % of control
- T/C (dose: 0.45 mg/kg/injection, schedule: Q04DX003 (ip), vehicle: saline): 109 % of control
- T/C (dose: 0.56 mg/kg/injection, schedule: Q01DX009 (ip), vehicle: saline): 118 % of control
- T/C (dose: 0.65 mg/kg/injection, schedule: Q04DX003 (ip), vehicle: saline): 109 % of control
- T/C (dose: 1.1 mg/kg/injection, schedule: Q04DX003 (ip), vehicle: saline): 120 % of control
- T/C (dose: 1.13 mg/kg/injection, schedule: Q01DX009 (ip), vehicle: saline): 109 % of control
- T/C (dose: 1.65 mg/kg/injection, schedule: Q04DX003 (ip), vehicle: saline): 120 % of control
- T/C (dose: 3.0 mg/kg/injection, schedule: Q01DX009 (ip), vehicle: Klucel (hydroxypropylcellulose) (HPC)): 103 % of control
- T/C (dose: 3.0 mg/kg/injection, schedule: Q04DX003 (ip), vehicle: Klucel (hydroxypropylcellulose) (HPC)): 112 % of control
- T/C (dose: 6.0 mg/kg/injection, schedule: Q01DX009 (ip), vehicle: Klucel (hydroxypropylcellulose) (HPC)): 111 % of control
- T/C (dose: 6.0 mg/kg/injection, schedule: Q04DX003 (ip), vehicle: Klucel (hydroxypropylcellulose) (HPC)): 100 % of control
- T/C (dose: 8.0 mg/kg/injection, schedule: Q04DX003 (ip), vehicle: Klucel (hydroxypropylcellulose) (HPC)): 95 % of control
- T/C (dose: 8.0 mg/kg/injection, schedule: Q04DX003 (ip), vehicle: saline with Tween-80): 120 % of control
- T/C (dose: 12.5 mg/kg/injection, schedule: Q04DX003 (ip), vehicle: Klucel (hydroxypropylcellulose) (HPC)): 115 % of control

Compound: COc1cc(C=Nc2cc(Cl)c(Cl)c(Cl)c2)ccc1N(CCCl)CCCl
- T/C (dose: 1.8 mg/kg/injection, schedule: Q01DX009 (ip), vehicle: Klucel (hydroxypropylcellulose) (HPC)): 150 % of control
- T/C (dose: 2.7 mg/kg/injection, schedule: Q01DX009 (ip), vehicle: Klucel (hydroxypropylcellulose) (HPC)): 158 % of control
- T/C (dose: 3.12 mg/kg/injection, schedule: Q01DX009 (ip), vehicle: Klucel (hydroxypropylcellulose) (HPC)): 195 % of control
- T/C (dose: 4.1 mg/kg/injection, schedule: Q01DX009 (ip), vehicle: Klucel (hydroxypropylcellulose) (HPC)): 237 % of control and 163 % of control
- T/C (dose: 6.25 mg/kg/injection, schedule: Q01DX009 (ip), vehicle: Klucel (hydroxypropylcellulose) (HPC)): 227 % of control and 240 % of control and 208 % of control
- T/C (dose: 9.3 mg/kg/injection, schedule: Q01DX009 (ip), vehicle: Klucel (hydroxypropylcellulose) (HPC)): 254 % of control and 150 % of control
- T/C (dose: 12.5 mg/kg/injection, schedule: Q01DX009 (ip), vehicle: Klucel (hydroxypropylcellulose) (HPC)): 204 % of control
- T/C (dose: 25.0 mg/kg/injection, schedule: Q01DX009 (ip), vehicle: Klucel (hydroxypropylcellulose) (HPC)): 120 % of control
- T/C (dose: 30.0 mg/kg/injection, schedule: Q04DX003 (ip), vehicle: Klucel (hydroxypropylcellulose) (HPC)): 186 % of control
- T/C (dose: 45.0 mg/kg/injection, schedule: Q04DX003 (ip), vehicle: Klucel (hydroxypropylcellulose) (HPC)): 272 % of control

Compound: Nc1ncns1
- T/C (dose: 50.0 mg/kg/injection, schedule: Q04DX003 (ip), vehicle: saline): 101 % of control
- T/C (dose: 100.0 mg/kg/injection, schedule: Q04DX003 (ip), vehicle: saline): 120 % of control

Compound: Cc1cnc2ncn(Cc3c[nH]c(=O)[nH]c3=O)c(=O)c2c1
- T/C (dose: 12.5 mg/kg/injection, schedule: Q01DX001 (ip), vehicle: saline with Tween-80): 105 % of control and 112 % of control
- T/C (dose: 25.0 mg/kg/injection, schedule: Q01DX001 (ip), vehicle: saline with Tween-80): 104 % of control and 109 % of control
- T/C (dose: 50.0 mg/kg/injection, schedule: Q01DX001 (ip), vehicle: saline with Tween-80): 102 % of control

Compound: CN(C)CCNc1cc(O)c2c(c1O)C(=O)c1ccccc1C2=O
- T/C (dose: 50.0 mg/kg/injection, schedule: Q01DX005 (ip), vehicle: saline with Tween-80): 113 % of control
- T/C (dose: 100.0 mg/kg/injection, schedule: Q01DX005 (ip), vehicle: saline with Tween-80): 103 % of control
- T/C (dose: 200.0 mg/kg/injection, schedule: Q01DX005 (ip), vehicle: saline with Tween-80): 113 % of control

Compound: Cc1cc([N+](=O)[O-])c2ccccc2c1N(CC(=O)O)S(=O)(=O)c1ccccc1
- T/C [1]: 100 % of control
- T/C [6]: 100 % of control
- T/C [3]: 112 % of control
- T/C (dose: 200.0 mg/kg/injection, schedule: Q04DX003 (ip), vehicle: saline with Tween-80): 100 % of control
- T/C [5]: 120 % of control
- T/C (dose: 400.0 mg/kg/injection, schedule: Q04DX003 (ip), vehicle: saline with Tween-80): 121 % of control

Compound: CCOc1ccc(S(=O)(=O)c2ccc(C)cc2)c2c1no[n+]2[O-]
- T/C (dose: 15.0 mg/kg/injection, schedule: Q01DX009 (ip), vehicle: saline with Tween-80): 102 % of control

Compound: O=P(N1CCCC1)(N1CC1)N1CC1
- T/C (dose: 0.74 mg/kg/injection, schedule: Q01DX009 (ip), vehicle: saline): 89 % of control
- T/C (dose: 1.11 mg/kg/injection, schedule: Q01DX009 (ip), vehicle: saline): 98 % of control
- T/C (dose: 1.67 mg/kg/injection, schedule: Q01DX009 (ip), vehicle: saline): 121 % of control
- T/C (dose: 2.2 mg/kg/injection, schedule: Q01DX009 (ip), vehicle: saline): 205 % of control
- T/C (dose: 2.2 mg/kg/injection, schedule: Q04DX003 (ip), vehicle: saline): 113 % of control
- T/C (dose: 2.5 mg/kg/injection, schedule: Q01DX009 (ip), vehicle: saline): 180 % of control
- T/C (dose: 3.3 mg/kg/injection, schedule: Q01DX009 (ip), vehicle: saline): 255 % of control
- T/C (dose: 5.0 mg/kg/injection, schedule: Q01DX009 (ip), vehicle: saline): 268 % of control and 317 % of control
- T/C (dose: 5.56 mg/kg/injection, schedule: Q04DX003 (ip), vehicle: saline): 150 % of control
- T/C (dose: 7.5 mg/kg/injection, schedule: Q01DX009 (ip), vehicle: saline): 112 % of control
- T/C (dose: 7.5 mg/kg/injection, schedule: Q04DX003 (ip), vehicle: saline): 182 % of control
- T/C (dose: 8.33 mg/kg/injection, schedule: Q04DX003 (ip), vehicle: saline): 204 % of control
- T/C (dose: 12.5 mg/kg/injection, schedule: Q04DX003 (ip), vehicle: saline): 240 % of control and 250 % of control
- T/C (dose: 18.7 mg/kg/injection, schedule: Q04DX003 (ip), vehicle: saline): 272 % of control
